Experimental data as given in patent US20200345862A1, “TRANSITION METAL-BASED FUNCTIONAL MOIETIES FOR PREPARING CELL TARGETING CONJUGATES” (priority 2017, published 2020).
Like-named read-outs stand apart in the source and are kept apart here.

Settings: HEPES pH 8.1, 47° C., 4 h
Procedure: To a mixture of water (101 μL) and 200 mM HEPES buffer (12.3 μL, pH 8.1) containing different concentrations of halide salts (0, 100, 500, 1000, and 2000 mM NaCl (for 4a; pH 8.1; the final concentrations of NaCl in the reaction mixtures were 0, 10, 50, 100, and 200 mM, respectively) or 0, 100, and 500 mM NaBr (for 5d; pH 8.1; the final concentrations of NaBr in the reaction mixtures were 0, 10, and 50 mM, respectively) or 0 and 100 mM NaI (for 6k; pH 8.1; the final concentrations of NaI in the reaction mixtures were 0 and 10 mM, respectively), [PtL2((Fe)DFO-suc-pip)(ethane-1,2-diamine)]^+ TFA^− (4a (L2=Cl), 5d (L2=Br) or 6k (L2=I)) (10.0 μL, 5 mM in 20 mM NaCl (4a) or 5 mM in water (5d and 6k), 5.0 eq.) was added. The samples were incubated in a thermoshaker at 47° C. for 1 h, 2 h, and 4 h, followed by the HPLC analysis at 430 nm.

Substance | concentration of the semi-final product after incubation (stability) ([NaI]=10 mM, FIG. 6) [%] | concentration of the semi-final product after incubation (stability) ([NaBr]=50 mM, FIG. 5) [%]
[Pt((Fe)DFO-suc-pip)(ethane-1,2-diamine)I]^+ TFA^− [6k] | 98 | 
[(Fe)DFO-pip-PtBr(ethane-1,2-diamine)]^+ TFA^− [5d] |  | 95
